Test [1] deals with 9L gliosarcoma tumors (9L glioma). Briefly: 9L glioma flank study. It counts as in vivo, Fisher 344 rats. The conditions noted are these: Day 25 or 26 after implantation; treatment from Day 5 per Table 4. On the procedure: Four groups of rats (twenty total Fisher 344 rats, 200 g) were given s.q. transplants of 1 mm3 9L gliosarcoma tumors (9L glioma) on Day 0. The tumors were implanted in the rat flanks to avoid complications relating to adequate brain levels of squalamine. Randomization and treatment began on Day 5 according to the following scheme:
On Day 25 or 26 after tumor implantation, the tumor size was measured directly. The tumor size (i.e., its volume “V”) was estimated based on volumetric calculations determined from the measured length (“L”), width (“W”), and height (“H”) of the tumor (Vtumor spheroid˜0.5 ×L×W×H). The tumor volumes shown in Table 5 represent the mean tumor volumes for each treatment group for those animals that survived to the end of the experiment.

In the next test the test system is H460. Briefly: H460 lung tumor xenograft with carboplatin. It counts as in vivo, nude BALBc mice. As for the experimental part:
(§1) About 5×10^6 cells from each of two human lung tumor lines, H460 (a rapidly proliferating large cell carcinoma cell line, ATCC HTB-177) and Calu-6 (an anaplastic carcinoma, ATCC HTB-56), were inoculated subcutaneously in the right foreleg of nude BALBc mice. Once tumors were visible (3-5 days) with a mean volume of approximately 50-80 mm^3, mice were treated intraperitoneally with 60 mg/kg carboplatin (single dose) or 20 mg/kg/squalamine (once daily for 5 days) or a combination of carboplatin and squalamine. There were 8 mice per group. Tumor growth inhibition was scored by quantifying the size of tumors once control tumors reached a size of 1.0 gram and determining the ratio of mean treated tumor size to mean control tumor size (T/C). Tumor growth inhibition was then scored as 100% x [1-(T/C)]. A separate antitumor activity variable, tumor growth delay, was scored for the tumors by determining the length of time it required for the mean tumor size in a treatment group to reach a size of 500 mm^3 (B. A. Teicher et al., Anticancer Research 18, 2567-2574 (1998)). The tumor growth inhibition seen with carboplatin plus squalamine was greater than that seen with carboplatin or squalamine alone. The relative inactivity of squalamine as a single agent by this assay endpoint supports the idea that squalamine is synergistic with carboplatin in the inhibition of these two human lung tumor xenografts. Similarly, it was determined that squalamine enhanced the tumor growth delay caused by carboplatin by an enhancement factor of >2.3 (Table 7).

The next test concerns Calu-6. Briefly: Calu-6 lung tumor xenograft with carboplatin. It counts as in vivo, nude BALBc mice. As for the experimental part:
as §1

In the next test the test system is parental 2008 cell line. Kind of test: Human ovarian tumor 2008 xenograft with cisplatin. In kind it is in vivo, female Swiss nude mice. The conditions noted are these: cisplatin single dose 4 mg/kg, squalamine 2 mg/kg, days 1-10. As for the experimental part:
Human ovarian tumor cells were injected subcutaneously (5×10^7 cells per animal) in the mid-back region of female Swiss nude mice. The human ovarian tumors were either the parental 2008 cell line (cf. R. J. Pietras et al., Oncogene 9, 1829-1838 (1994)) or a transfected variant overexpressing the Her-2/neu receptor. The overexpression of the Her-2/neu receptor is considered to make the resulting xenograft tumors more angiogenic and less responsive to chemotherapy. After one week, animals were randomized to groups receiving no treatment (controls), a single dose of cisplatin (4 mg/kg), daily treatment with squalamine (2 mg/kg, days 1-10) or cisplatin plus squalamine. The growth of tumors was then scored on day 28 following initiation of chemotherapy. The results were very similar with the parental 2008 tumor and the transfected variant overexpressing the Her-2/neu receptor. […] In this xenograft model, the [day 28 mean treated tumor weight increase divided by the day 28 mean control tumor weight increase (T/C)] x 100% was subtracted from 100% to give the tumor growth inhibition (TGI) value for each group.

In test [2] the test system is murine Lewis lung adenocarcinoma. Briefly: Lung metastases of subcutaneous Lewis lung carcinoma. It counts as in vivo, C57BL/6 mice. As to conditions: day 20; squalamine 20 mg/kg/day s.c.; cyclophosphamide 125 mg/kg i.p. days 7, 9, 11; cisplatin 10 mg/kg i.p. day 7. As for the experimental part:
The murine Lewis lung adenocarcinoma was implanted subcutaneously in the hind-leg of male C57BL/6 mice and allowed to grow for one week. Groups of mice were then left untreated or treated with either squalamine (20 mg/kg/day, s.c.), cyclophosphamide (125 mg/kg, i.p. on days 7, 9 and 11), cisplatin (10 mg/kg, i.p. on day 7), the combination of squalamine and cyclophosphamide, or the combination of squalamine and cisplatin. On day 20, the animals were sacrificed, and the mean number of lung metastases were determined for each group.

For another test, the system named is NHE1, NHE2, NHE3. The conditions noted are these: FIG. 4; cited from earlier work.
Test [3] deals with human MX-1 breast cancer line. It counts as in vivo. The conditions noted are these: single 200 mg/kg dose on day 14. On the procedure: These documents each are entirely incorporated herein by reference. Squalamine was examined as adjunctive therapy following a single 200 mg/kg dose of cyclophosphamide. The cyclophosphamide was injected on day 14 following implantation of the tumor, at a time when the tumors measured 65-125 μl. […] The animals were then randomized to three treatment arms (each n=27): vehicle dosing only (Intralipid); squalamine given 10 mg/kg/day in Intralipid; and squalamine given 20 mg/kg/day in Intralipid for five days a week. Animals whose tumors exceeded 2 grams at any time during the experiment were euthanized. The experiment was continued for 90 days after initiating squalamine treatment to ensure that only mice experiencing long-term cures were still alive.

The subject of the next test is LNCaP cells. Briefly: LNCaP cell growth in vitro ([3H]-thymidine incorporation). In kind it is cell-based, human. The conditions noted are these: media containing serum. On the procedure:
The anti-proliferative effect of squalamine was evaluated in tissue culture by both crystal violet staining and [^3H]-thymidine incorporation, on the LNCaP/C4-2 human prostate cancer progression model. Developed by applicants' laboratory, this lineage-derived cell line recapitulates the progression of human neoplastic prostate disease from an androgen-dependent and minimally metastatic condition (LNCaP cells) to an androgen-independent (defined as being able to proliferate in castrate hosts) and highly aggressive state (C4-2 subline).
In vitro experiments were also conducted with the LNCAP cell line in which cell proliferation as judged by [3H]-thymidine uptake was determined. LNCaP cells were maintained as previously described (cf. J. T. Hsieh et al., Cancer Research 53, 2852-2857 (1993)). Cells were exposed to 20 ng/mL vascular endothelial growth factor (VEGF), 20 μg/mL squalamine or a combination of VEGF and squalamine. […] As a consequence, the mechanism underlying the effectiveness of squalamine treatment of the LNCaP tumor in vivo may under certain conditions also involve direct inhibition of tumor cell growth and/or induction of tumor cell death.

Where [4] appears, read: carboplatin 60 mg/kg i.p. single dose, squalamine 20 mg/kg once daily for 5 days.
Where [5] appears, read: time for mean tumor size to reach 500 mm^3.

Take `O=NN(CCCl)C(=O)NCCCl` [BCNU, 1,3-Bis(2-chloroethyl)-1-nitrosourea, reference compound]: in test [1], the “% Reduction (based on control volume)” value stood at 86.1% and the “Mean Tumor volume” value is given as 2,547 mm^3.
For `N.N.O=C([O-])C1(C(=O)[O-])CCC1.[Pt+2]` [Carboplatin, carboplatin], the “Tumor Growth Inhibition (T/C)” value in the test with H460 (setting [4]) came out at 50%; in the test with Calu-6 (setting [4]), 23%. The “Tumor Growth Delay” value in the test with H460 (setting [5]) is 2.9; in the test with Calu-6 (setting [5]), 2.5.
For `N.N.[Cl][Pt][Cl]` [Cisplatin, cis-Diamminedichloroplatinum, reference compound], the “Day 28 Mean Tumor Size” value in the test with parental 2008 cell line was determined as 5108 mm^3. Moreover, the “Tumor Growth Inhibition (TGI) Index” value in the test on parental 2008 cell line (day 28) is 18%. In addition, in test [2], the “mean number of lung metastases” value is reported as “reduced the number of metastases”.
`N=C(N)NC(=O)c1nc(Cl)c(N)nc1N` [amiloride]: the NHE isoform selectivity entry in the test on NHE1, NHE2, NHE3 is recorded as “specifically act against NHE1 over NHE2 or NHE3”.
`O=P1(N(CCCl)CCCl)NCCCO1` (centres unmarked) [cyclophosphamide, N,N-Bis-(2-chloroethyl)-N′-(3-hydroxypropyl)phosphordiamidic acid cyclic ester monohydrate, reference compound]: in test [3], the tumor regression entry is “partial regression in all animals and complete regression in a small fraction of the animals”. In addition, the “mean number of lung metastases” value in test [2] is reported as “reduced the number of metastases”.
Take VEGF: the “Percent of Control [3H]-Thymidine Uptake” value in the test with LNCaP cells (20 ng/mL VEGF and/or 20 μg/mL squalamine, 24 hours) is 84%. For the same molecule, the “effect on cell growth alone” value in the test on LNCaP cells (20 ng/mL VEGF or 20 μg/mL squalamine) was “minimal effects on cell growth”.

Values taken from patent US6596712B2, “Treatment of carcinomas using squalamine in combination with other anti-cancer agents or modalities” (Genaera Corporation, priority 1996, dated 2003).
